The values that follow are results of earlier work, collected in patent publication US6558710B1, “Topical zinc compositions and methods of use” (priority 1999, dated 2003).

Read-outs that look alike come from different tables or passages of the source.

One data set concerns HIV. Conditions: 1-1.5% zinc acetate, 2 hours, in vitro (U.S. Pat. No. 5,545,673).
For data set [1] the following is noted: solutions of 0.2-1%, applied circumorally.

As to `CC(=O)[O-].CC(=O)[O-].[Zn+2]` [zinc acetate], the HIV infectivity result in the data set on HIV was “reduced or completely eliminated”. Besides, the dermal irritancy result (20% aqueous) is recorded as “slightly less irritant”.
Turning to `[Cl-].[Cl-].[Zn+2]` [zinc chloride], the dermal irritancy result (1% aqueous) is recorded as “severely irritant”.
Turning to `[O]=[Zn]` [zinc oxide], the dermal irritancy result (20% suspension) is listed as “not overtly irritant”. Besides, the “stimulation of epidermal healing” value (in comparison to the more irritating and more water-soluble zinc salts) is given as “only marginally effective”.
For the compound `O=S(=O)([O-])[O-].[Zn+2]` [zinc sulfate], the “irritation and side effects” value in data set [1] was “severe irritation, unpleasant dryness and stimulate the emetic reflex”. For the same compound, under “1% aqueous”, the dermal irritancy result is on record as “not overtly irritant”.
As to zinc pyrithione, the dermal irritancy result (20% suspension) is listed as “not overtly irritant”.
